# In US12714706B2, “Methods of treating small cell lung cancer with lurbinectedin formulations” (PHARMA MAR, S.A., priority 2019, dated 2026):
# Values joined by “and” are separate entries in the source; they are usually repeats but may differ in a detail not shown here. Identical values can stand only once.
# Columns and labels:
# Type in all cases: in vivo, human
# [1] = tested on: SCLC; test: Post-hoc exploratory analysis of response in SCLC patients who had previously received immunotherapy; conditions: for Lurbinectedin treatment: OS / Lurbinectedin treatment: DoR / Lurbinectedin treatment: PFS: individual SCLC patients with prior immunotherapy
# From the text: Post-hoc exploratory analysis was done on the response in patients who had previously received immunotherapy (n=8).
# [2] = tested on: advanced solid tumors; test: Phase 1 dose escalation of lurbinectedin plus irinotecan: MTD, RD and dose limiting toxicities
# Experimental: A clinical study of lurbinectedin in combination with irinotecan for patients afflicted with solid tumors was carried out. […] Patients were enrolled following a standard 3+3 dose escalation design. Phase Ib/II expansion part at the recommended dose (RD) was performed to explore efficacy in indications where antitumor activity signal was observed.
# Three weeks was defined as one treatment cycle.
# Primary outcome measures were (1) maximum tolerated dose (MTD) and (2) recommended dose (RD). MTD was defined as lowest dose explored during dose escalation which one third or more of evaluable patients develop DLT in Cycle 1. RD was defined as highest dose level explored during dose escalation in which fewer than one third of evaluable patients develop DLT during Cycle 1.
# [3] = tested on: SCLC; test: Phase 2 trial of lurbinectedin monotherapy in SCLC: antitumor activity (ORR, DOR, PFS, OS; RECIST v1.1)
# [4] = resistant disease, listed as Lurbinectedin
# [5] = lurbinectedin D1 q3w with irinotecan 75 mg/m2 D1 & D8 q3w
# [6] = chemotherapy-free interval 90 days or longer (sensitive)
compound,measurement,setting,value
"COc1ccc2[nH]c3c(c2c1)CCN[C@]31CS[C@@H]2c3c(OC(C)=O)c(C)c4c(c3[C@H](COC1=O)N1[C@@H]2[C@H]2c3c(cc(C)c(OC)c3O)C[C@@H]([C@@H]1O)N2C)OCO4 [lurbinectedin, Lurbinectedin]",Lurbinectedin treatment: OS,[1]; resistant disease,12.6 months
same,Lurbinectedin treatment: DoR,[1]; [4],5.6 months and 5.3 months and 5.1 months
same,Lurbinectedin treatment: OS,[1]; [4],12.0 months and 4.9 months and 14.9 months and 6.9+ months
same,Lurbinectedin treatment: PFS,[1]; [4],6.0 months and 1.3 months and 8.3 months and 6.9 months and 6.3 months
same,Lurbinectedin treatment: DoR,[1]; sensitive disease,6.4 months and 2.8 months
same,Lurbinectedin treatment: OS,[1]; sensitive disease,9.3 months and 10.8 months and 2.3 months
same,Lurbinectedin treatment: PFS,[1]; sensitive disease,7.6 months and 4.7 months and 1.3 months
same,Response to single-agent lurbinectedin in patients who had previously received immunotherapy,"[1]; post-hoc, n=8",trend for a better response
same,DLTs/Evaluable patients,"[2]; Dose Level 1: lurbinectedin 1.0 mg/m2 D1 + irinotecan 75 mg/m2 D1 & D8, q3w",1/6
same,DLTs/Evaluable patients,"[2]; Dose Level 2: lurbinectedin 1.5 mg/m2 D1 + irinotecan 75 mg/m2 D1 & D8, q3w",1/4
same,DLTs/Evaluable patients,"[2]; Dose Level 3 (without G-CSF): lurbinectedin 2.0 mg/m2 D1 + irinotecan 75 mg/m2 D1 & D8, q3w",4/11
same,DLTs/Evaluable patients,"[2]; Dose Level 3* (with G-CSF): lurbinectedin 2.0 mg/m2 D1 + irinotecan 75 mg/m2 D1 & D8, q3w",3/12
same,DLTs/Evaluable patients,"[2]; Dose Level 4* (with G-CSF): lurbinectedin 2.4 mg/m2 D1 + irinotecan 75 mg/m2 D1 & D8, q3w",2/3
same,MTD with G-CSF (lurbinectedin dose),[2]; [5],2.4 mg/m2
same,MTD without G-CSF (lurbinectedin dose),[2]; [5],2.0 mg/m2
same,RD with G-CSF (lurbinectedin dose),[2]; [5],2.0 mg/m2
same,Overall response rate (CR + PR),"[3]; IRC assessment, overall (n = 105)",30.5%
same,"Duration of response, median","[3]; IRC assessment, resistant disease (CTFI <90 days)",4.8 months
same,Overall response rate (CR + PR),"[3]; IRC assessment, resistant disease (CTFI <90 days, n = 45)",13.3%
same,"Duration of response, median","[3]; IRC assessment, sensitive disease (CTFI ≥90 days)",5.3 months
same,Overall response rate (CR + PR),"[3]; IRC assessment, sensitive disease (CTFI ≥90 days, n = 60)",43.3%
same,"Duration of response, median","[3]; Investigator assessment, overall",5.3 months
same,"Duration of response, median","[3]; Investigator assessment, resistant disease (CTFI <90 days)",4.7 months
same,"Duration of response, median","[3]; Investigator assessment, sensitive disease (CTFI ≥90 days)",6.2 months
same,Overall response rate (CR + PR),"[3]; Investigator assessment, sensitive disease (CTFI ≥90 days, n = 60)",45.0%
same,Median progression-free survival,"[3]; Investigator-assessed, overall population",3.5 months
same,Patients alive at 1 year after the first dose,[3]; chemotherapy-free interval 90 days or longer (n = 60),48%
same,Median overall survival,[3]; [6],11.9 months
same,Median progression-free survival,[3]; [6],4.6 months
same,Median overall survival,[3]; overall population,9.3 months
same,Median overall survival of patients with initial objective response (post-hoc),[3]; responders with sensitive disease,15.8 months
